Results reported in the supplement of paper PMC8967900.

Tests used:
Test in all cases: selective drug sensitivity score (sDSS, relative to normal bone marrow) (sDSS (score)); higher = more potent and effective on the cell line relative to normal bone marrow cells
Details in all cases: 72 h
NALM-16 = system: NALM-16
NALL-1 = system: NALL-1
HPB-ALL = system: HPB-ALL
COG-LL-402h = system: COG-LL-402h
KASUMI-10 = system: KASUMI-10
MN-60 = system: MN-60
REH = system: REH
COG-LL-355h = system: COG-LL-355h
KOPN-8 = system: KOPN-8
MOLT-14 = system: MOLT-14
COG-LL-319h = system: COG-LL-319h
RPMI-8402 = system: RPMI-8402
TMD5 = system: TMD5
380 = system: 380
DND-41 = system: DND-41
P12-ICHIKAWA = system: P12-ICHIKAWA
MOLT-4 = system: MOLT-4
MHH-CALL-3 = system: MHH-CALL-3
KASUMI-9 = system: KASUMI-9
LC4-1 = system: LC4-1
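Note: ALL cell lines in 384-well plates, five doses spanning 10,000-fold, each plate scaled between vehicle and 100 µmol/L benzalkonium chloride controls, sDSS an adapted area-under-curve metric.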

Row | SMILES | selective drug sensitivity score (NALM-16) | selective drug sensitivity score (NALL-1) | selective drug sensitivity score (HPB-ALL) | selective drug sensitivity score (COG-LL-402h) | selective drug sensitivity score (KASUMI-10) | selective drug sensitivity score (MN-60) | selective drug sensitivity score (REH) | selective drug sensitivity score (COG-LL-355h) | selective drug sensitivity score (KOPN-8) | selective drug sensitivity score (MOLT-14) | selective drug sensitivity score (COG-LL-319h) | selective drug sensitivity score (RPMI-8402) | selective drug sensitivity score (TMD5) | selective drug sensitivity score 380 | selective drug sensitivity score (DND-41) | selective drug sensitivity score (P12-ICHIKAWA) | selective drug sensitivity score (MOLT-4) | selective drug sensitivity score (MHH-CALL-3) | selective drug sensitivity score (KASUMI-9) | selective drug sensitivity score (LC4-1)
1 | C1=N/C2=N/c3ccc(OCCN4CCCC4)c(c3)COC/C=C/COCc3cccc(c3)C(=C1)N2 [Pacritinib] (top concentration 10000 nM) | -8.2 | -8.4 | -5.7 | 2.9 | 2.2 | -9.6 | -3.2 | 2.9 | -4.7 | -4 | 0 | -5.7 | -9.2 | -8.7 | -4.7 | -7.3 | -7.3 | -7.7 | -0.9 | -5.6
2 | CC(=O)OC[C@H]1O[C@@H]([S-])[C@H](OC(C)=O)[C@@H](OC(C)=O)[C@@H]1OC(C)=O.CCP(CC)CC.[Au+] [Auranofin] (top concentration 2500 nM) | -0.56 | 3.14 | 5.64 | 7.84 | 5.54 | -2.76 | 6.04 | 6.34 | 11.6 | 0.04 | 8.24 | -2.36 | 3.84 | 12.3 | 1.94 | -0.96 | -0.46 | 4.04 | 3.94 | 6.34
3 | O=C(/C=C/c1cccnc1)NCCCCC1CCN(C(=O)c2ccccc2)CC1 [Daporinad] (top concentration 1000 nM) | 2.96 | 15.9 | 7.96 | 16.4 | 12.1 | 6.66 | 15.5 | 11 | 19.8 | 4.66 | 9.76 | 16.3 | 4.46 | 14.7 | 19.9 | 9.16 | 5.86 | 14.6 | 16.2 | 14.2
4 | CC(C)C[C@H](NC(=O)[C@H](Cc1ccccc1)NC(=O)c1cnccn1)B(O)O [Bortezomib] (top concentration 1000 nM) | 2.32 | 2.52 | 5.22 | 1.32 | 2.92 | -3.38 | 4.92 | 5.92 | 3.42 | 1.52 | 4.02 | 2.72 | 2.32 | 1.42 | 6.02 | 2.22 | 2.22 | 2.72 | 3.22 | 3.32
5 | C[C@]12C=CC(=O)C=C1CC[C@@H]1[C@@H]2[C@@H](O)C[C@@]2(C)[C@H]1CC[C@]2(O)C(=O)CO [Prednisolone] (top concentration 10000 nM) | -3 | 18 | 2.2 | 16.9 | -3 | -3 | -3 | 20.6 | 22.6 | -0.5 | 16.2 | -1.3 | 4.8 | 23.8 | 29.4 | 14.6 | 1.1 | 26.7 | 2 | 8.4
6 | Cn1c(=O)n(-c2ccc(C(C)(C)C#N)cc2)c2c3cc(-c4cnc5ccccc5c4)ccc3ncc21 [Dactolisib] (top concentration 1000 nM) | 0.86 | 3.46 | 1.36 | 5.36 | -1.04 | 8.66 | 12.9 | 3.46 | 15.1 | 0.36 | -7.44 | 7.76 | 4.46 | 17.5 | 5.66 | 4.76 | 5.76 | 3.26 | 10.3 | 5.16
7 | Cc1cc([C@@H](C)Nc2ccccc2C(=O)O)c2nc(N3CCOCC3)cc(=O)n2c1 [AZD-6482] (top concentration 2500 nM) | 0.42 | 7.42 | 2.92 | 6.52 | -0.28 | 0.02 | 7.82 | 6.92 | 8.22 | -0.28 | 13.6 | 2.32 | -0.28 | 4.72 | 2.32 | 0.42 | 1.52 | 0.42 | 5.82 | 3.42
8 | COc1ccc(CCc2nc3cc(-c4c(C)noc4C)ccc3n2C[C@H](C)N2CCOCC2)cc1Cl [SGC-CBP30] (top concentration 25000 nM) | 0.48 | -0.62 | 1.88 | 7.78 | 4.78 | 2.78 | -0.02 | 9.88 | 6.18 | 4.58 | 16.4 | 5.08 | -2.62 | 0.38 | 2.88 | 1.68 | 1.88 | 9.48 | 5.58 | 7.48
9 | O=C(/C=C\n1cnc(-c2cc(C(F)(F)F)cc(C(F)(F)F)c2)n1)NNc1ccccn1 [Verdinexor] (top concentration 1000 nM) | -0.36 | 0.64 | 1.84 | 9.34 | 1.54 | 2.24 | 4.44 | 8.54 | 8.34 | 13.3 | 11.3 | 8.34 | 0.14 | 12 | 11.6 | 5.64 | 9.74 | 20.5 | 3.74 | 1.94
